Measurements as given in the NIST ThermoML archive (doi:10.1021/acs.jced.6b00210).
Numbers after ± are expanded uncertainties.

Test: xn = mol fraction of the nth substance listed
Conditions: 100 kPa, Liquid; for viscosity: Concentric cylinders viscometry; for mass density: Vibrating tube method

Nc1ccccc1 [aniline] + CCCC(C)O
viscosity (293.15 K, x1 = 0.0811): 3.55 ± 0.43 mPa·s
viscosity (293.15 K, x1 = 0.1599): 3.23 ± 0.39 mPa·s
viscosity (293.15 K, x1 = 0.2399): 3 ± 0.36 mPa·s
viscosity (293.15 K, x1 = 0.35): 2.8 ± 0.3 mPa·s
viscosity (293.15 K, x1 = 0.44): 2.71 ± 0.33 mPa·s
viscosity (293.15 K, x1 = 0.56): 2.67 ± 0.32 mPa·s
viscosity (293.15 K, x1 = 0.65): 2.72 ± 0.33 mPa·s
viscosity (293.15 K, x1 = 0.74): 2.86 ± 0.34 mPa·s
viscosity (293.15 K, x1 = 0.8499): 3.26 ± 0.39 mPa·s
viscosity (293.15 K, x1 = 0.9363): 3.79 ± 0.46 mPa·s
viscosity (293.15 K, x1 = 1): 4.37 ± 0.53 mPa·s
mass density (293.15 K, x1 = 0.0811): 824.5 ± 0.2 kg/m3
mass density (293.15 K, x1 = 0.1599): 839.5 ± 0.2 kg/m3
mass density (293.15 K, x1 = 0.2399): 855 ± 0.2 kg/m3
mass density (293.15 K, x1 = 0.35): 877 ± 0.3 kg/m3
mass density (293.15 K, x1 = 0.44): 895.5 ± 0.3 kg/m3
mass density (293.15 K, x1 = 0.56): 920.8 ± 0.3 kg/m3
mass density (293.15 K, x1 = 0.65): 940.4 ± 0.3 kg/m3
mass density (293.15 K, x1 = 0.74): 960.5 ± 0.3 kg/m3
mass density (293.15 K, x1 = 0.8499): 985.8 ± 0.3 kg/m3
mass density (293.15 K, x1 = 0.9363): 1006.3 ± 0.3 kg/m3
mass density (293.15 K, x1 = 1): 1021.7 ± 0.3 kg/m3
viscosity (298.15 K, x1 = 0.0811): 3.03 ± 0.36 mPa·s
viscosity (298.15 K, x1 = 0.1599): 2.74 ± 0.33 mPa·s
viscosity (298.15 K, x1 = 0.2399): 2.53 ± 0.3 mPa·s
viscosity (298.15 K, x1 = 0.35): 2.35 ± 0.28 mPa·s
viscosity (298.15 K, x1 = 0.44): 2.28 ± 0.27 mPa·s
viscosity (298.15 K, x1 = 0.56): 2.28 ± 0.27 mPa·s
viscosity (298.15 K, x1 = 0.65): 2.34 ± 0.28 mPa·s
viscosity (298.15 K, x1 = 0.74): 2.49 ± 0.3 mPa·s
viscosity (298.15 K, x1 = 0.8499): 2.87 ± 0.35 mPa·s
viscosity (298.15 K, x1 = 0.9363): 3.31 ± 0.4 mPa·s
viscosity (298.15 K, x1 = 1): 3.8 ± 0.46 mPa·s
mass density (298.15 K, x1 = 0.0811): 820.3 ± 0.2 kg/m3
mass density (298.15 K, x1 = 0.1599): 835.3 ± 0.2 kg/m3
mass density (298.15 K, x1 = 0.2399): 850.8 ± 0.2 kg/m3
mass density (298.15 K, x1 = 0.35): 872.7 ± 0.3 kg/m3
mass density (298.15 K, x1 = 0.44): 891.1 ± 0.3 kg/m3
mass density (298.15 K, x1 = 0.56): 916.4 ± 0.3 kg/m3
mass density (298.15 K, x1 = 0.65): 935.9 ± 0.3 kg/m3
mass density (298.15 K, x1 = 0.74): 956 ± 1 kg/m3
mass density (298.15 K, x1 = 0.8499): 981.4 ± 0.3 kg/m3
mass density (298.15 K, x1 = 0.9363): 1001.9 ± 0.3 kg/m3
mass density (298.15 K, x1 = 1): 1017.4 ± 0.3 kg/m3
viscosity (303.15 K, x1 = 0.0811): 2.61 ± 0.31 mPa·s
viscosity (303.15 K, x1 = 0.1599): 2.34 ± 0.28 mPa·s
viscosity (303.15 K, x1 = 0.2399): 2.12 ± 0.26 mPa·s
viscosity (303.15 K, x1 = 0.35): 1.93 ± 0.23 mPa·s
viscosity (303.15 K, x1 = 0.44): 1.86 ± 0.22 mPa·s
viscosity (303.15 K, x1 = 0.56): 1.83 ± 0.22 mPa·s
viscosity (303.15 K, x1 = 0.65): 1.87 ± 0.23 mPa·s
viscosity (303.15 K, x1 = 0.74): 2.01 ± 0.24 mPa·s
viscosity (303.15 K, x1 = 0.8499): 2.36 ± 0.28 mPa·s
viscosity (303.15 K, x1 = 0.9363): 2.74 ± 0.33 mPa·s
viscosity (303.15 K, x1 = 1): 3.13 ± 0.38 mPa·s
mass density (303.15 K, x1 = 0.0811): 816.1 ± 0.2 kg/m3
mass density (303.15 K, x1 = 0.1599): 831 ± 0.2 kg/m3
mass density (303.15 K, x1 = 0.2399): 846.5 ± 0.2 kg/m3
mass density (303.15 K, x1 = 0.35): 868.3 ± 0.3 kg/m3
mass density (303.15 K, x1 = 0.44): 886.7 ± 0.3 kg/m3
mass density (303.15 K, x1 = 0.56): 912 ± 1 kg/m3
mass density (303.15 K, x1 = 0.65): 931.6 ± 0.3 kg/m3
mass density (303.15 K, x1 = 0.74): 951.7 ± 0.3 kg/m3
mass density (303.15 K, x1 = 0.8499): 977 ± 0.3 kg/m3
mass density (303.15 K, x1 = 0.9363): 997.6 ± 0.3 kg/m3
mass density (303.15 K, x1 = 1): 1013.2 ± 0.3 kg/m3
viscosity (308.15 K, x1 = 0.0811): 2.22 ± 0.27 mPa·s
viscosity (308.15 K, x1 = 0.1599): 1.98 ± 0.24 mPa·s
viscosity (308.15 K, x1 = 0.2399): 1.8 ± 0.22 mPa·s
viscosity (308.15 K, x1 = 0.35): 1.65 ± 0.2 mPa·s
viscosity (308.15 K, x1 = 0.44): 1.58 ± 0.19 mPa·s
viscosity (308.15 K, x1 = 0.56): 1.562 ± 0.19 mPa·s
viscosity (308.15 K, x1 = 0.65): 1.64 ± 0.2 mPa·s
viscosity (308.15 K, x1 = 0.74): 1.78 ± 0.21 mPa·s
viscosity (308.15 K, x1 = 0.8499): 2.09 ± 0.25 mPa·s
viscosity (308.15 K, x1 = 0.9363): 2.44 ± 0.29 mPa·s
viscosity (308.15 K, x1 = 1): 2.75 ± 0.33 mPa·s
mass density (308.15 K, x1 = 0.0811): 811.8 ± 0.2 kg/m3
mass density (308.15 K, x1 = 0.1599): 826.7 ± 0.2 kg/m3
mass density (308.15 K, x1 = 0.2399): 842.1 ± 0.3 kg/m3
mass density (308.15 K, x1 = 0.35): 863.9 ± 0.3 kg/m3
mass density (308.15 K, x1 = 0.44): 882.3 ± 0.3 kg/m3
mass density (308.15 K, x1 = 0.56): 907.6 ± 0.3 kg/m3
mass density (308.15 K, x1 = 0.65): 927.1 ± 0.3 kg/m3
mass density (308.15 K, x1 = 0.74): 947.2 ± 0.3 kg/m3
mass density (308.15 K, x1 = 0.8499): 972.7 ± 0.3 kg/m3
mass density (308.15 K, x1 = 0.9363): 993.3 ± 0.3 kg/m3
mass density (308.15 K, x1 = 1): 1009 ± 0.3 kg/m3
viscosity (313.15 K, x1 = 0.0811): 1.84 ± 0.22 mPa·s
viscosity (313.15 K, x1 = 0.1599): 1.64 ± 0.2 mPa·s
viscosity (313.15 K, x1 = 0.2399): 1.5 ± 0.18 mPa·s
viscosity (313.15 K, x1 = 0.35): 1.39 ± 0.17 mPa·s
viscosity (313.15 K, x1 = 0.44): 1.359 ± 0.16 mPa·s
viscosity (313.15 K, x1 = 0.56): 1.38 ± 0.17 mPa·s
viscosity (313.15 K, x1 = 0.65): 1.46 ± 0.18 mPa·s
viscosity (313.15 K, x1 = 0.74): 1.61 ± 0.19 mPa·s
viscosity (313.15 K, x1 = 0.8499): 1.89 ± 0.23 mPa·s
viscosity (313.15 K, x1 = 0.9363): 2.18 ± 0.26 mPa·s
viscosity (313.15 K, x1 = 1): 2.43 ± 0.29 mPa·s
mass density (313.15 K, x1 = 0.0811): 807.5 ± 0.2 kg/m3
mass density (313.15 K, x1 = 0.1599): 822.3 ± 0.2 kg/m3
mass density (313.15 K, x1 = 0.2399): 837.6 ± 0.3 kg/m3
mass density (313.15 K, x1 = 0.35): 859.4 ± 0.3 kg/m3
mass density (313.15 K, x1 = 0.44): 877.8 ± 0.3 kg/m3
mass density (313.15 K, x1 = 0.56): 903 ± 0.3 kg/m3
mass density (313.15 K, x1 = 0.65): 922.6 ± 0.3 kg/m3
mass density (313.15 K, x1 = 0.74): 942.8 ± 0.3 kg/m3
mass density (313.15 K, x1 = 0.8499): 968.2 ± 0.3 kg/m3
mass density (313.15 K, x1 = 0.9363): 989 ± 0.3 kg/m3
mass density (313.15 K, x1 = 1): 1004.7 ± 0.3 kg/m3
viscosity (318.15 K, x1 = 0.0811): 1.48 ± 0.18 mPa·s
viscosity (318.15 K, x1 = 0.1599): 1.34 ± 0.16 mPa·s
viscosity (318.15 K, x1 = 0.2399): 1.257 ± 0.15 mPa·s
viscosity (318.15 K, x1 = 0.35): 1.18 ± 0.14 mPa·s
viscosity (318.15 K, x1 = 0.44): 1.16 ± 0.14 mPa·s
viscosity (318.15 K, x1 = 0.56): 1.21 ± 0.15 mPa·s
viscosity (318.15 K, x1 = 0.65): 1.29 ± 0.16 mPa·s
viscosity (318.15 K, x1 = 0.74): 1.44 ± 0.17 mPa·s
viscosity (318.15 K, x1 = 0.8499): 1.7 ± 0.2 mPa·s
viscosity (318.15 K, x1 = 0.9363): 1.93 ± 0.23 mPa·s
viscosity (318.15 K, x1 = 1): 2.14 ± 0.26 mPa·s
mass density (318.15 K, x1 = 0.0811): 803.1 ± 0.2 kg/m3
mass density (318.15 K, x1 = 0.1599): 817.9 ± 0.3 kg/m3
mass density (318.15 K, x1 = 0.2399): 833.2 ± 0.3 kg/m3
mass density (318.15 K, x1 = 0.35): 854.9 ± 0.3 kg/m3
mass density (318.15 K, x1 = 0.44): 873.3 ± 0.3 kg/m3
mass density (318.15 K, x1 = 0.56): 898.6 ± 0.3 kg/m3
mass density (318.15 K, x1 = 0.65): 918.1 ± 0.3 kg/m3
mass density (318.15 K, x1 = 0.74): 938.3 ± 0.3 kg/m3
mass density (318.15 K, x1 = 0.8499): 963.8 ± 0.3 kg/m3
mass density (318.15 K, x1 = 0.9363): 984.6 ± 0.3 kg/m3
mass density (318.15 K, x1 = 1): 1000.4 ± 0.3 kg/m3
viscosity (323.15 K, x1 = 0.0811): 1.19 ± 0.14 mPa·s
viscosity (323.15 K, x1 = 0.1599): 1.11 ± 0.13 mPa·s
viscosity (323.15 K, x1 = 0.2399): 1.06 ± 0.13 mPa·s
viscosity (323.15 K, x1 = 0.35): 1.03 ± 0.12 mPa·s
viscosity (323.15 K, x1 = 0.44): 1.03 ± 0.12 mPa·s
viscosity (323.15 K, x1 = 0.56): 1.08 ± 0.13 mPa·s
viscosity (323.15 K, x1 = 0.65): 1.17 ± 0.14 mPa·s
viscosity (323.15 K, x1 = 0.74): 1.31 ± 0.16 mPa·s
viscosity (323.15 K, x1 = 0.8499): 1.54 ± 0.19 mPa·s
viscosity (323.15 K, x1 = 0.9363): 1.77 ± 0.21 mPa·s
viscosity (323.15 K, x1 = 1): 1.96 ± 0.24 mPa·s
mass density (323.15 K, x1 = 0.0811): 798.7 ± 0.2 kg/m3
mass density (323.15 K, x1 = 0.1599): 813.3 ± 0.3 kg/m3
mass density (323.15 K, x1 = 0.2399): 828.6 ± 0.3 kg/m3
mass density (323.15 K, x1 = 0.35): 850.2 ± 0.3 kg/m3
mass density (323.15 K, x1 = 0.44): 868.5 ± 0.3 kg/m3
mass density (323.15 K, x1 = 0.56): 893.7 ± 0.3 kg/m3
mass density (323.15 K, x1 = 0.65): 913.3 ± 0.3 kg/m3
mass density (323.15 K, x1 = 0.74): 933.4 ± 0.3 kg/m3
mass density (323.15 K, x1 = 0.8499): 958.9 ± 0.3 kg/m3
mass density (323.15 K, x1 = 0.9363): 979.7 ± 0.3 kg/m3
mass density (323.15 K, x1 = 1): 995.5 ± 0.3 kg/m3
